# According to PubChem BioAssay (NCI):
#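 All cell lines were grown in 96-well plates and treated with compound for 48 hours. TGI is the concentration that stops growth completely.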
# Legend:
# Test in all cases: DTP human tumour cell line panel, 48 h
# HCT-116 colon = system: HCT-116 colon
# HCT-15 colon = system: HCT-15 colon
# HT29 colon = system: HT29 colon
# DLD-1 colon = system: DLD-1 colon
# SR leukemia = system: SR leukemia
# KM12 colon = system: KM12 colon
# SNB-75 CNS = system: SNB-75 CNS
# SK-OV-3 ovarian = system: SK-OV-3 ovarian
# MOLT-4 leukemia = system: MOLT-4 leukemia
# A498 renal = system: A498 renal
# MALME-3M melanoma = system: MALME-3M melanoma
# SK-MEL-28 melanoma = system: SK-MEL-28 melanoma
# KM20L2 colon = system: KM20L2 colon
# NCI-H226 lung = system: NCI-H226 lung
# UACC-257 melanoma = system: UACC-257 melanoma
# M14 melanoma = system: M14 melanoma
# ACHN renal = system: ACHN renal
# M19-MEL melanoma = system: M19-MEL melanoma
# RPMI-8226 leukemia = system: RPMI-8226 leukemia
# SK-MEL-2 melanoma = system: SK-MEL-2 melanoma
# SK-MEL-5 melanoma = system: SK-MEL-5 melanoma
# HL-60(TB) leukemia = system: HL-60(TB) leukemia
# SNB-19 CNS = system: SNB-19 CNS
# OVCAR-3 ovarian = system: OVCAR-3 ovarian
# UACC-62 melanoma = system: UACC-62 melanoma
# SF-539 CNS = system: SF-539 CNS
# HOP-62 NSCLC = system: HOP-62 NSCLC
# OVCAR-4 ovarian = system: OVCAR-4 ovarian
# OVCAR-5 ovarian = system: OVCAR-5 ovarian
# SF-295 CNS = system: SF-295 CNS
# NCI-H23 lung = system: NCI-H23 lung
# COLO 205 colon = system: COLO 205 colon
# U251 CNS = system: U251 CNS
# SNB-78 CNS = system: SNB-78 CNS
# A549 NSCLC = system: A549 NSCLC
# 786-0 renal = system: 786-0 renal
# TK-10 renal = system: TK-10 renal
# EKVX NSCLC = system: EKVX NSCLC
# HCC-2998 colon = system: HCC-2998 colon
# OVCAR-8 ovarian = system: OVCAR-8 ovarian
# NCI-H460 lung = system: NCI-H460 lung
# CCRF-CEM leukemia = system: CCRF-CEM leukemia
# NCI-H522 lung = system: NCI-H522 lung
# K-562 leukemia = system: K-562 leukemia
# LOX IMVI melanoma = system: LOX IMVI melanoma
# DMS 273 small cell lung = system: DMS 273 small cell lung
# SN12C renal = system: SN12C renal
# SF-268 CNS = system: SF-268 CNS
# SW-620 colon = system: SW-620 colon
# DMS 114 small cell lung = system: DMS 114 small cell lung
# CAKI-1 renal = system: CAKI-1 renal
# HOP-18 NSCLC = system: HOP-18 NSCLC
# UO-31 renal = system: UO-31 renal
# RXF 393 renal = system: RXF 393 renal
# XF 498 CNS = system: XF 498 CNS
# LXFL 529 NSCLC = system: LXFL 529 NSCLC
# IGROV1 ovarian = system: IGROV1 ovarian
# HOP-92 NSCLC = system: HOP-92 NSCLC
structure (smiles),measurement,setting,value
C=C(Nc1ccc(OC)cc1OC)C(=O)Cc1cccc[n+]1[O-],TGI,HCT-116 colon,> 100 µM
same,TGI,HCT-15 colon,> 100 µM
same,TGI,HT29 colon,> 100 µM
same,TGI,DLD-1 colon,> 100 µM
same,TGI,SR leukemia,> 100 µM
same,TGI,KM12 colon,> 100 µM
same,TGI,SNB-75 CNS,> 100 µM
same,TGI,SK-OV-3 ovarian,> 100 µM
same,TGI,MOLT-4 leukemia,> 100 µM
same,TGI,A498 renal,> 100 µM
same,TGI,MALME-3M melanoma,> 100 µM
same,TGI,SK-MEL-28 melanoma,> 100 µM
same,TGI,KM20L2 colon,> 100 µM
same,TGI,NCI-H226 lung,> 100 µM
same,TGI,UACC-257 melanoma,> 100 µM
same,TGI,M14 melanoma,> 100 µM
same,TGI,ACHN renal,> 100 µM
same,TGI,M19-MEL melanoma,> 100 µM
same,TGI,RPMI-8226 leukemia,> 100 µM
same,TGI,SK-MEL-2 melanoma,> 100 µM
same,TGI,SK-MEL-5 melanoma,> 100 µM
same,TGI,HL-60(TB) leukemia,> 100 µM
same,TGI,SNB-19 CNS,> 100 µM
same,TGI,OVCAR-3 ovarian,> 100 µM
same,TGI,UACC-62 melanoma,> 100 µM
same,TGI,SF-539 CNS,> 100 µM
same,TGI,HOP-62 NSCLC,> 100 µM
same,TGI,OVCAR-4 ovarian,> 100 µM
same,TGI,OVCAR-5 ovarian,> 100 µM
same,TGI,SF-295 CNS,> 100 µM
same,TGI,NCI-H23 lung,> 100 µM
same,TGI,COLO 205 colon,> 100 µM
same,TGI,U251 CNS,> 100 µM
same,TGI,SNB-78 CNS,> 100 µM
same,TGI,A549 NSCLC,> 100 µM
same,TGI,786-0 renal,> 100 µM
same,TGI,TK-10 renal,> 100 µM
same,TGI,EKVX NSCLC,> 100 µM
same,TGI,HCC-2998 colon,> 100 µM
same,TGI,OVCAR-8 ovarian,> 100 µM
same,TGI,NCI-H460 lung,> 100 µM
same,TGI,CCRF-CEM leukemia,> 100 µM
same,TGI,NCI-H522 lung,> 100 µM
same,TGI,K-562 leukemia,> 100 µM
same,TGI,LOX IMVI melanoma,> 100 µM
same,TGI,DMS 273 small cell lung,> 100 µM
same,TGI,SN12C renal,> 100 µM
same,TGI,SF-268 CNS,> 100 µM
same,TGI,SW-620 colon,> 100 µM
same,TGI,DMS 114 small cell lung,> 100 µM
same,TGI,CAKI-1 renal,> 100 µM
same,TGI,HOP-18 NSCLC,> 100 µM
same,TGI,UO-31 renal,> 100 µM
same,TGI,RXF 393 renal,> 100 µM
same,TGI,XF 498 CNS,> 100 µM
same,TGI,LXFL 529 NSCLC,> 100 µM
same,TGI,IGROV1 ovarian,> 100 µM
same,TGI,HOP-92 NSCLC,> 100 µM
CCOC(=O)C(Cc1ccc([N+](=O)[O-])cc1)NC(=O)CC1c2ccccc2-c2ccccc21 (stereo not drawn),TGI,HCT-116 colon,> 100 µM
same,TGI,HCT-15 colon,> 100 µM
same,TGI,HT29 colon,> 100 µM
same,TGI,DLD-1 colon,> 100 µM
same,TGI,SR leukemia,> 100 µM
same,TGI,KM12 colon,> 100 µM
same,TGI,SNB-75 CNS,68.8 µM
same,TGI,SK-OV-3 ovarian,> 100 µM
same,TGI,MOLT-4 leukemia,> 100 µM
same,TGI,A498 renal,> 100 µM
same,TGI,MALME-3M melanoma,42.3 µM
same,TGI,SK-MEL-28 melanoma,> 100 µM
same,TGI,KM20L2 colon,> 100 µM
same,TGI,NCI-H226 lung,> 100 µM
same,TGI,UACC-257 melanoma,91.5 µM
same,TGI,M14 melanoma,57.9 µM
same,TGI,ACHN renal,45.1 µM
same,TGI,M19-MEL melanoma,38.9 µM
same,TGI,RPMI-8226 leukemia,> 100 µM
same,TGI,SK-MEL-2 melanoma,> 100 µM
same,TGI,HL-60(TB) leukemia,> 100 µM
same,TGI,SNB-19 CNS,> 100 µM
same,TGI,OVCAR-3 ovarian,> 100 µM
same,TGI,UACC-62 melanoma,> 100 µM
same,TGI,SF-539 CNS,77.4 µM
same,TGI,HOP-62 NSCLC,> 100 µM
same,TGI,OVCAR-4 ovarian,> 100 µM
same,TGI,SF-295 CNS,> 100 µM
same,TGI,NCI-H23 lung,> 100 µM
same,TGI,COLO 205 colon,> 100 µM
same,TGI,U251 CNS,> 100 µM
same,TGI,SNB-78 CNS,65.3 µM
same,TGI,A549 NSCLC,> 100 µM
same,TGI,786-0 renal,> 100 µM
same,TGI,TK-10 renal,> 100 µM
same,TGI,EKVX NSCLC,> 100 µM
same,TGI,HCC-2998 colon,> 100 µM
same,TGI,OVCAR-8 ovarian,> 100 µM
same,TGI,NCI-H460 lung,> 100 µM
same,TGI,CCRF-CEM leukemia,> 100 µM
same,TGI,NCI-H522 lung,> 100 µM
same,TGI,K-562 leukemia,> 100 µM
same,TGI,LOX IMVI melanoma,> 100 µM
same,TGI,DMS 273 small cell lung,> 100 µM
same,TGI,SN12C renal,> 100 µM
same,TGI,SF-268 CNS,> 100 µM
same,TGI,SW-620 colon,> 100 µM
same,TGI,DMS 114 small cell lung,> 100 µM
same,TGI,HOP-18 NSCLC,> 100 µM
same,TGI,UO-31 renal,> 100 µM
same,TGI,RXF 393 renal,41.6 µM
same,TGI,XF 498 CNS,53.6 µM
same,TGI,LXFL 529 NSCLC,> 100 µM
same,TGI,IGROV1 ovarian,> 100 µM
same,TGI,HOP-92 NSCLC,56.5 µM
